In patent US4450269A, “Mono-5-substituted-3-chloro-4H-1,2,6-thiadiazin-4-one antifungal agents” (FMC Corporation, priority 1980, dated 1984):
Read-outs that look alike come from different tables or passages of the source.

Tests used:
Helminthosporium oryzae = assay: Mycelial growth test; conditions: Bipolaris oryzae, 72 h
Method: HO = Helminthosporium oryzae
Aliquots of previously prepared solutions of active ingredient in acetone were added to tubes containing 20 ml of sterile, melted potato dextrose agar that had been cooled to 50° C. to provide mixtures of 40, 20, 10, 5 and 2.5 ppm. The tubes were shaken to ensure thorough mixing of the chemical with the agar, and the mixture poured into petri dishes having 4 quadrants to solidify. Each quadrant was inoculated with a 4 mm diameter disc of agar containing mycelium of the test fungi and incubated at 25° C. for 72 hours during which the samples were alternately exposed to light for 12 hours and to darkness for 12 hours. Growth was measured at the end of the incubation period by measuring the diameter of each fungus colony. Two measurements of the diameter, perpendicular to each other, were taken and the values averaged. Data are reported as percent inhibition (%I) by the following formula: [formula] Captan and chlorothalonil were used as standards for comparison.

Erysiphe polygoni = assay: whole plant or invertebrate; conditions: foliar, 24 h, read-out: Percent Disease Control, curative, bean powdery mildew
[1] = read-out: Percent Fungus Growth Inhibition
[2] = read-out: Percent Fungus Growth Inhibition, HO, 5 ppm, 72 hours
[3] = read-out: Percent Fungus Growth Inhibition, HO, 10 ppm, 72 hours
[4] = read-out: Percent Fungus Growth Inhibition, HO, 20 ppm, 72 hours
[5] = read-out: Percent Fungus Growth Inhibition, HO, 40 ppm, 72 hours

Row | Compound | inhibition at 5 ppm (Helminthosporium oryzae; [1]) [%] | inhibition at 10 ppm (Helminthosporium oryzae; [1]) [%] | inhibition at 20 ppm (Helminthosporium oryzae; [1]) [%] | inhibition at 40 ppm (Helminthosporium oryzae; [1]) [%] | pest or weed control at 150 ppm (Erysiphe polygoni) [%] | inhibition at 5 ppm (Helminthosporium oryzae; [2]) [%] | inhibition at 10 ppm (Helminthosporium oryzae; [3]) [%] | inhibition at 20 ppm (Helminthosporium oryzae; [4]) [%] | inhibition at 40 ppm (Helminthosporium oryzae; [5]) [%]
1 | O=C(Nc1ccccc1)Oc1ccc(Oc2nsnc(Cl)c2=O)cc1 [Compound 37, 3-chloro-5-[4-(phenylaminocarbonyloxy)phenoxy]-4H-1,2,6,-thiadiazin-4-one] | 27 | 13 | 60 | 47 | 0 |  |  |  | 
2 | O=C(OCc1ccccc1)Oc1ccc(Oc2nsnc(Cl)c2=O)cc1 [Compound 38, 3-chloro-5-[4-(phenylmethoxycarbonyloxy)phenoxyl]-4H-1,2,6-thiadiazin-4-one] |  |  |  |  | 0 | 56 | 39 | 89 | 100
3 | C[S+]([O-])c1ccc(Oc2nsnc(Cl)c2=O)cc1 (stereo not shown) [Compound 40, 3-chloro-5-[(4-methylsulfinyl)phenoxy]-4H-1,2,6,-thiadiazin-4-one] |  |  |  |  | 0 | 40 | 60 | 87 | 100
4 | CC(=O)Nc1cccc(Oc2nsnc(Cl)c2=O)c1 [Compound 42, 3-[(3-N--acetylamino)-phenoxy]-5-chloro-4H--1,2,6-thiadiazin-4-one] |  |  |  |  | 0 | 23 | 38 | 100 | 100
5 | CC(=O)Nc1ccccc1Oc1nsnc(Cl)c1=O [Compound 43, 3-[(2-acetylamino)-phenoxy]-5-chloro-4H--1,2,6-thiadiazin-4-one] |  |  |  |  | 0 | 61 | 70 | 65 | 91
6 | O=c1c(Cl)nsnc1Oc1cccc(C(F)(F)F)c1 [Compound 44, 3-chloro-5-[(3-trifluoromethyl)phenoxy]-4H--1,2,6-thiadiazin-4-one] |  |  |  |  | 100 | 100 | 100 | 100 | 100
7 | O=C(O)Cc1ccccc1Oc1nsnc(Cl)c1=O [Compound 45, 3-(2-carboxymethylphenoxy)-5-chloro-4H--1,2,6-thiadiazin-4-one] |  |  |  |  | 0 | 0 | 0 | 63 | 100
8 | N#CCc1ccc(Oc2nsnc(Cl)c2=O)cc1 [Compound 46, 3-chloro-5-[(4-cyanomethyl)-phenoxy]4H--1,2,6-thiadiazin-4-one] |  |  |  |  | 0 | 67 | 89 | 100 | 100
9 | CC(=O)c1ccc(Oc2nsnc(Cl)c2=O)cc1 [Compound 47, 3-(4-acetylphenoxy)-5-chloro-4H--1,2,6-thiadiazin-4-one] |  |  |  |  | 0 | 75 | 88 | 100 | 100
10 | CC(=O)c1cccc(Oc2nsnc(Cl)c2=O)c1 [Compound 48, 3-(3-acetylphenoxy)-5-chloro-4H--1,2,6-thiadiazin-4-one] |  |  |  |  | 0 | 100 | 63 | 100 | 100
11 | CC(=O)c1ccccc1Oc1nsnc(Cl)c1=O [Compound 49, 3-(2-acetylphenoxy)-5-chloro-4H--1,2,6-thiadiazin-4-one] |  |  |  |  | 0 | 74 | 100 | 100 | 100
12 | O=C(O)c1ccc(Oc2nsnc(Cl)c2=O)cc1 [Compound 50, 3-(4-carboxyphenoxy)-5-chloro-4H--1,2,6-thiadiazin-4-one] |  |  |  |  | 0 | 75 | 38 | 100 | 100
13 | COc1ccc(Cl)c(Oc2nsnc(Cl)c2=O)c1 [Compound 51, 3-chloro-5-[(2-chloro-5-methoxy)phenoxy]-4H--1,2,6-thiadiazin-4-one] |  |  |  |  | 0 | 78 | 100 | 100 | 100
14 | COc1cc(Cl)cc(Oc2nsnc(Cl)c2=O)c1 [Compound 52, 3-chloro-5-[(3-chloro-5-methoxy)phenoxy]-4H--1,2,6-thiadiazin-4-one] |  |  |  |  | 75 | 100 | 89 | 100 | 100
15 | O=c1c(Cl)nsnc1Oc1ccc([N+](=O)[O-])cc1Cl [Compound 53, 3-chloro-5-(2-chloro-4-nitrophenoxy)-4H--1,2,6-thiadiazin-4-one] |  |  |  |  | 0 | 27 | 100 | 100 | 100
16 | Cc1cc(Oc2nsnc(Cl)c2=O)ccc1Cl [Compound 54, 3-chloro-5-(4-chloro-3-methylphenoxy)-4H--1,2,6-thiadiazin-4-one] |  |  |  |  | 0 | 43 | 91 | 73 | 100
17 | Cc1cc(Cl)ccc1Oc1nsnc(Cl)c1=O [Compound 55, 3-chloro-5-(4-chloro-2-methylphenoxy)-4H--1,2,6-thiadiazin-4-one] |  |  |  |  | 50 | 100 | 100 | 91 | 100
18 | Cc1ccc(Oc2nsnc(Cl)c2=O)c(Br)c1 [Compound 57, 3-[(2-bromo-4-methyl)-phenoxy]-5-chloro-4H--1,2,6-thiadiazin-4-one] |  |  |  |  | 100 | 100 | 100 | 100 | 100
19 | Cc1cc(Cl)c(Oc2nsnc(Cl)c2=O)cc1C [Compound 58, 3-chloro-5-[(2-chloro-4,5-dimethyl)phenoxy]-4H--1,2,6-thiadiazin-4-one] |  |  |  |  | 50 | 54 | 54 | 69 | 69
20 | COc1cc(Oc2nsnc(Cl)c2=O)cc(OC)c1C(C)=O [Compound 61, 3-[(4-acetyl-3,5-dimethoxy)-phenoxy]-5-chloro-4H--1,2,6-thiadiazin-4-one] |  |  |  |  | 0 | 13 | 33 | 100 | 100
